Assay type in all cases: in vivo
In experiment [1] the test system is Chinese cabbage young plants. Nature of the experiment: Dwarfing test of Chinese cabbage young plant. Particulars: for Plant Height / Dwarfing Rate: 5 ml per cell on 4th day, measured 22nd day; for Dwarfing Rate: vs comparative group. As for the experimental part: Dwarfing rate (%)=[(the plant height of the comparative group)−(the plant height of an addition group)/the plant height of the comparative group]×100
18.4 g of potassium hydroxide was dissolved in 400 ml of distilled water at 20° C., 50 g of cinnamic acid was added to the potassium hydroxide solution and dissolved by stirring, the resultant solution was diluted with distilled water until the total volume of solution was 500 ml, and thus 10% cinnamic acid aqueous solution (pH 8.8) was prepared. The aqueous solution was further diluted with distilled water 100 times or 33.3 times, and 0.1% cinnamic acid aqueous solution and 0.3% cinnamic acid aqueous solution were prepared, respectively.
Nursery soil for house use was filled into a polyethylene joint pot (36 cells: 45×45×30 mm/cell), water was sufficiently given to the soil, and seeds of Chinese cabbage were sowed. After seeding, the pot was placed in the same greenhouse as described above to sprout. Subsequently, on the 4th day, the cinnamic aqueous acid solutions were added to the nursery soil in the joint pot.
Among 36 cells, 12 cells were prepared as a 0.1% cinnamic acid aqueous solution addition group, and 5 ml of the 0.1% cinnamic acid aqueous solution was added to the nursery soil of each cell. Another 12 cells were prepared as a 0.3% cinnamic acid aqueous solution addition group, and 5 ml of the 0.3% cinnamic acid aqueous solution was added to the nursery soil of each cell. Remaining 12 cells were prepared as a comparative group in which 5 ml of water is added to each cell, instead of the cinnamic acid aqueous solution. Subsequently, the cultivation of Chinese cabbage young plants in each group was continued under general conditions. On the 22nd day, the heights of young plants in each group were measured, the dwarfing rate (%) was calculated, and the dwarfing effect of cinnamic acid aqueous solution on Chinese cabbage young plants was examined. […]

A further experiment concerns green onion young plants. Nature of the experiment: Dwarfing test of green onion young plant. The note with it: for Plant Height / Dwarfing Rate: 5 ml per cell on 5th day, measured 27th day; for Dwarfing Rate: vs comparative group. As to the method:
50 g of sodium tripolyphosphate was dissolved in 400 ml of distilled water at 80° C., 17.5 g of cinnamic acid was added to the sodium tripolyphosphate solution and dissolved by stirring, the resultant solution was diluted with distilled water until the total volume of solution was 500 ml, and thus 3.5% cinnamic acid aqueous solution (pH 6.5) was prepared. The aqueous solution was further diluted with distilled water 70 times or 17.5 times, and 0.05% cinnamic acid aqueous solution and 0.2% cinnamic acid aqueous solution were prepared, respectively.
Nursery soil for house use was filled into paper joint pots (each with 24 cells: 34×43×50 mm/cell), water was sufficiently given to the soil, and seeds of carrots were sowed. After seeding, the pot was placed in the same greenhouse as described above to sprout. Subsequently, on the 5th day, the cinnamic aqueous acid solutions were added to the nursery soil in the joint pots. One of the joint pots (24 cells) was prepared as a 0.05% cinnamic acid aqueous solution addition group, and 5 ml of the 0.05% cinnamic acid aqueous solution was added to the nursery soil of each cell. Another one of the join pots was prepared as a 0.2% cinnamic acid aqueous solution addition group, and 5 ml of the 0.2% cinnamic acid aqueous solution was added to the nursery soil of each cell. The other one of the joint pots was prepared as a comparative group in which 5 ml of water is added to each cell, instead of the cinnamic acid aqueous solution. Subsequently, the cultivation of carrot young plants in each group was continued under general conditions. On the 27th day, the heights of young plants in each group were measured, the dwarfing rate (%) was calculated, and the dwarfing effect of cinnamic acid aqueous solution on carrot young plants was examined. […].
In the same way as in Example 5 except that seeds of green onion were sowed, the dwarfing effect of cinnamic acid aqueous solution on green onion young plants was examined. […]

The next experiment concerns eggplant young plants. As to the kind of experiment: Dwarfing test of eggplant young plant. Particulars: for Plant Height / Dwarfing Rate: 5 ml per cell on 7th day, measured 25th day; for Dwarfing Rate: vs comparative group. As to the method:
After seeding, the pot was placed in the same greenhouse as described above to sprout. Subsequently, on the 5th day, the cinnamic aqueous acid solutions were added to the nursery soil in the joint pots. One of the joint pots (24 cells) was prepared as a 0.05% cinnamic acid aqueous solution addition group, and 5 ml of the 0.05% cinnamic acid aqueous solution was added to the nursery soil of each cell. Another one of the join pots was prepared as a 0.2% cinnamic acid aqueous solution addition group, and 5 ml of the 0.2% cinnamic acid aqueous solution was added to the nursery soil of each cell. […] Subsequently, the cultivation of carrot young plants in each group was continued under general conditions. On the 27th day, the heights of young plants in each group were measured, the dwarfing rate (%) was calculated, and the dwarfing effect of cinnamic acid aqueous solution on carrot young plants was examined. From the results in Table 5, it became evident that the 0.05% and 0.2% cinnamic acid aqueous solutions are effective in dwarfing carrot young plants. In the same way as in Example 5 except that seeds of cauliflower were sowed, the cinnamic acid solutions were added to the nursery soil in the joint pot on the 4th day, and that heights of young plants in each group were measured on the 20th day, the dwarfing effect of cinnamic acid aqueous solution on cauliflower young plants was examined. From the results in Table 12, it became evident that the cinnamic acid aqueous solutions are effective in dwarfing cauliflower young plants. In the same way as in Example 12 except that seeds of tomato were sowed, and that the cinnamic acid solutions were added to the nursery soil of the joint pot on the 7th day, the dwarfing effect of cinnamic acid aqueous solution on tomato young plants was examined. From the results in Table 17, it became evident that the cinnamic acid aqueous solutions are effective in dwarfing tomato young plants. In the same way as in Example 17 except that seeds of eggplant were sowed, and that plant heights were measured on the 25th day, the dwarfing effect of cinnamic acid aqueous solution on eggplant young plants was examined. From the results in Table 19, it became evident that the cinnamic acid aqueous solutions are effective in dwarfing eggplant young plants.

`O=C(O)C=Cc1ccccc1` [cinnamic acid]: the “Plant Height” value was 7.0 cm in experiment [1] (0.1% aqueous solution); 6.9 cm in experiment [1] (0.3% aqueous solution); 7.2 cm in the experiment with green onion young plants (0.05% aqueous solution); 5.6 cm in the experiment with green onion young plants (0.2% aqueous solution); 2.9 cm with eggplant young plants (0.05% aqueous solution); 2.3 cm in the experiment with eggplant young plants (0.2% aqueous solution). For the same compound, the “Dwarfing Rate” value in experiment [1] (0.1% aqueous solution) came to 23.9%; in experiment [1] (0.3% aqueous solution), 25.0%; with green onion young plants (0.05% aqueous solution) it was 25.8%; in the experiment with green onion young plants (0.2% aqueous solution), 42.3%; in the experiment on eggplant young plants (0.05% aqueous solution) it was 12.1%; in the experiment with eggplant young plants (0.2% aqueous solution) it was 30.3%. Also, the dwarfing effect result in experiment [1] (Chinese cabbage young plants, 0.1% and 0.3% aqueous solutions) is given as “effective”; in the experiment with green onion young plants (green onion young plants, 0.05% and 0.2% aqueous solutions), “effective”; with eggplant young plants (eggplant young plants, 0.05% and 0.2% aqueous solutions) it was “effective”.

The values above are taken from US20040200144A1, “Plant growth regulator and a method of producing the regulator” (Dainichiseika Color & Chemicals Mfg. Co., Ltd., priority 2003, published 2004).
